{
  "source": "patent US20100239596A1",
  "about": "“GRP78 AND TUMOR ANGIOGENESIS” (UNIVERSITY OF SOUTHERN CALIFORNIA, priority 2007, published 2010)",
  "key": {"[1]": {"test_system": "TuBEC (tumor-associated brain endothelial cells)", "type": "cell-based", "conditions": "seven days; for TuBEC cell death, agent alone: TMZ 300 μM, CPT-11 100 μM, Eto 50 μM, EGCG 20 μM", "method": "Cell death ELISA. EC were treated with etoposide (Calbiochem; La Jolla, Calif.), temozolomide (TMZ) (Schering-Plough; Kenilworth, N.J.), CPT-11 (Pharmacia; New York, N.Y.), the caspase inhibitor Q-VDOPH (Calbiochem), or EGCG (Sigma-Aldrich, St. Louis, Mo.), then assayed using the Cell Death Detection ELISA Plus kit (Roche Diagnostics; Indianapolis, Ind.) according to manufacturer's protocol. Percent death was calculated based on 100% positive cell death control.\nLentiviral construct. The sequences of siRNA, the isolation of human Grp78 cDNA and their subcloning into lentiviral constructs are previously described (Dong et al, Cancer Res., 65:5785-91, 2005). The sequences of the siRNA against human GRP78 are: siGRP78A: 5′-[…]-3′ (SEQ ID NO:1) and siGRP78B: 5′-[…]-3′ (SEQ ID NO:2). The sequences of the control siRNA are: sicontrol A: 5′-[…]-3′ (SEQ ID NO:3); sicontrol B: 5′-[…]-3′ (SEQ ID NO:4). For construction of lentivirus expressing GRP78, full length human GRP78 was prepared by reverse transcription of total HEK293T RNA followed by a 2-step PCR amplification and subcloning into the BamHI/XhoI sites of pcDNA3 (Invitrogen; Carlsbad, Calif.) to yield pcDNA3-hGRP78. Non-replicating lentiviral vectors co-expressing bicistronic human GRP78 and EGFP linked via the EMCV IRES were produced using the pLenti6/V5-D-TOPO and VIRAPOWER™ Lentivirus Expression system (Invitrogen, Carlsbad, Calif.). Initially, EGFP (Clonetech; Mountain View, Calif.) was inserted into the CMV driven expression cassette by TOPO cloning. […] The human GRP78 gene digested from pcDNA3-hGRP78 using XbaI and XhoI was ligated into pLenti6/EGFP between the CMV promoter and the EGFP gene. Next, an insert encoding the EMCV IRES, was generated by PCR from pIRES-EGFP (Clonetech) and subcloned into the XhoI/AgeI sites of pLenti6/huGRP78 EGFP. The IRES sequence was inserted between the human GRP78 gene and the EGFP allowing hGRP78 expression to be monitored by EGFP fluorescence. The manufacturer's manual was followed for TOPO cloning and production of viral particles. For infection, 10^4 cells were plated in 6-well dishes and infected with lentivirus at titers of 5×10^6 units/ml (TU/ml). Infected cells, monitored for GFP, were used when cultures were 100% GFP positive.\nTo test whether GRP78 confers drug resistance to TuBEC, TuBEC cultures were infected with lentivirus expressing siGRP78A and siCtr1A. Five days post infection, cultures were left untreated (media), or treated with CPT-11 [100 μM], etoposide (Eto) [50 μM] or temozolomide (MZ) [300 μM]. After treatment for seven days, the cells were analyzed for cytotoxicity.\nTo target GRP78 through a small molecule approach, TuBEC were incubated with EGCG alone or in combination with TMZ, CPT-11, and Eto. Cytotoxicity was measured after seven days (FIG. 3D)."}, "[2]": {"test_system": "BEC (normal human brain endothelial cells)", "assay": "MTT cell viability assay, BEC", "type": "cell-based", "conditions": "50 μM etoposide, 72 hours, vs DMSO vehicle", "method": "(§1) Cell Culture. Endothelial cells (EC) were isolated from normal human brain tissue or human glioma tissue as previously described (Charalambous et al, J. Neurosurg., 102:699-705, 2005; Charalambous et al, Exp Cell Res., 313:1192-202, 2007). All experiments were performed on subconfluent (60-80%) cultures, in passages 4 to 6 only.\n(§2) MTT cell viability assay. Cells were plated in triplicate (3×10^3 cells/well; […]) into 96-well plates coated with 1% gelatin. The 3-(4,5-dimethylthiazol-2-yl)-2,5-diphenyltetrazolium bromide (MTT) assay was performed according to the manufacturer's instructions (Sigma-Aldrich, St. Louis, Mo.). Percent cell viability was calculated relative to vehicle-treated controls.\n(§3) To compare the sensitivities of TuBEC and BEC to chemotherapeutic agents, cells were treated with the topoisomerase II inhibitor, etoposide [1-50 μM] or DMSO (vehicle) [0.1%] for 72 hours, and cytoxicity was assessed using the MTT assay, which was performed according to manufacturer's protocol (Sigma Aldrich; St. Louis, Mo.)."}, "[3]": {"test_system": "TuBEC (tumor-associated brain endothelial cells)", "assay": "MTT cell viability assay, TuBEC", "type": "cell-based, human", "conditions": "50 μM etoposide, 72 hours, vs DMSO vehicle", "method": "as §1, §2, §3"}},
  "data": [
    {"molecule": "CCc1c2c(nc3ccc(OC(=O)N4CCC(N5CCCCC5)CC4)cc13)-c1cc3c(c(=O)n1C2)COC(=O)[C@]3(O)CC", "note": "[CPT-11]", "values": [
      {"measurement": "TuBEC cell death, agent alone", "setting": "[1]", "value": "did not cause TuBEC cell death"}
    ]},
    {"molecule": "CC(C)[C@H](NC(=O)c1ccc2ccccc2n1)C(=O)N[C@@H](CC(=O)O)C(=O)COc1c(F)cccc1F", "note": "[Q-VDOPH]", "values": [
      {"measurement": "effect of caspase inhibition on cell death induced by CPT-11, Eto or TMZ with reduced GRP78", "setting": "[1]; Q-VDOPH [10 mM], TuBEC infected with siGRP78B", "value": "blocked cell death"}
    ]},
    {"molecule": "COc1cc([C@@H]2c3cc4c(cc3[C@@H](O[C@@H]3O[C@@H]5CO[C@@H](C)O[C@H]5[C@H](O)[C@H]3O)[C@H]3COC(=O)[C@H]23)OCO4)cc(OC)c1O", "note": "[etoposide]", "values": [
      {"measurement": "BEC died (cytotoxicity, MTT assay)", "setting": "[2]", "value": "over 60%"},
      {"measurement": "cell death of TuBEC (cytotoxicity, MTT assay)", "setting": "[3]", "value": "no significant cell death"},
      {"measurement": "TuBEC cell death, agent alone", "setting": "[1]", "value": "did not cause TuBEC cell death"}
    ]},
    {"molecule": "(−)-epigallocatechin gallate [EGCG]", "values": [
      {"measurement": "cell death, EGCG in combination with CPT-11", "setting": "[1]; EGCG 20 μM + CPT-11 100 μM, p=0.005", "value": 46, "unit": "%"},
      {"measurement": "cell death, EGCG in combination with Eto", "setting": "[1]; EGCG 20 μM + Eto 50 μM, p=0.001", "value": 49, "unit": "%"},
      {"measurement": "cell death, EGCG in combination with TMZ", "setting": "[1]; EGCG 20 μM + TMZ 300 μM, p=0.003", "value": 35, "unit": "%"},
      {"measurement": "TuBEC cell death, agent alone", "setting": "[1]", "value": "did not cause TuBEC cell death"}
    ]}
  ]
}
